The supplement of paper PMC4862054

Legend:
Conditions in all cases: incubation time: 72 h
[1] = system: MFM-223; test: drug sensitivity score (DSS), CellTiter-Glo (DSS (AUC-based score)); higher = stronger drug effect (viability inhibition or cytotoxicity); extreme values may be limits of the assay
Procedure, shortened: (§1)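 Using 20 µl of cell suspension per well, breast cancer cell lines were seeded into 384-well plates pre-loaded with compound at 5 concentrations in 10-fold steps across a compound-specific 10,000-fold range. Incubation lasted 72 h, after which CellTox Green fluorescence at 485/520 nm and then CellTiter-Glo luminescence, following 10 min at room temperature, were recorded. Each plate was normalised to 0.1 % DMSO and a positive kill control before the drug sensitivity score was derived from the area under the fitted dose-response curve.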

[2] = system: HCC1599; test: as above
Procedure, shortened: as §1

[3] = system: MDA-MB-436; test: as above
Procedure, shortened: as §1

[4] = system: CAL-51; test: as above
Procedure, shortened: as §1

[5] = system: BT-474; test: as above
Procedure, shortened: as §1

[6] = system: BT-549; test: as above
Procedure, shortened: as §1

[7] = system: CAL-148; test: as above
Procedure, shortened: as §1

[8] = system: HDQ-P1; test: as above
Procedure, shortened: as §1

[9] = system: HCC1143; test: normalised response (% of control), CellTiter-Glo; higher = more viable cells (100 = DMSO, 0 = benzethonium chloride kill control)
Method: (§2)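 DSRT, 72 h incubation, CellTox Green / CellTiter-Glo readout. Signal is normalised to DMSO and benzethonium chloride controls. Value is the normalised response at the highest dose.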

[10] = system: MDA-MB-436; test: as above
Method: as §2

[11] = system: MDA-MB-468; test: as above
Method: as §2

[12] = system: HCC1937; test: as above
Method: as §2

[13] = system: SK-BR-3; test: as above
Method: as §2

[14] = system: CAL-51; test: normalised viability (% of control), CellTiter-Blue; higher = more viable cells (about 100 = DMSO control)
Method: (§3)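 DSRT, CellTiter-Blue viability, 72 h incubation. Signal is normalised to DMSO and benzethonium chloride controls. Value is the normalised response at dose 9.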

[15] = system: DU-4475; test: as above
Method: as §3

[16] = system: CAL-85-1; test: as above
Method: as §3

[17] = system: CAL-148; test: as above
Method: as §3

[18] = system: HDQ-P1; test: as above
Method: as §3

[19] = system: MDA-MB-453; test: as above
Method: as §3

| Compound | drug sensitivity score [1] | drug sensitivity score [2] | drug sensitivity score [3] | drug sensitivity score [4] | drug sensitivity score [5] | drug sensitivity score [6] | drug sensitivity score [7] | drug sensitivity score [8] | normalised response [9] | normalised response [10] | normalised response [11] | normalised response [12] | normalised response [13] | normalised viability [14] | normalised viability [15] | normalised viability [16] | normalised viability [17] | normalised viability [18] | normalised viability [19] |
| --- | --- | --- | --- | --- | --- | --- | --- | --- | --- | --- | --- | --- | --- | --- | --- | --- | --- | --- | --- |
| O=C(O)c1ccc(-c2c[nH]c3ncc(-c4ccccc4)cc23)cc1C1CCCC1 | 0 | 0 | 0 | 0 | 0.507 | 0 | 0 | 0 | – | – | – | – | – | – | – | – | – | – | – |
| Cc1ccc(C(=O)N(CCCN)[C@@H](c2oc3cc(Cl)ccc3c(=O)c2Cc2ccccc2)C(C)C)cc1 (100 nM) | – | – | – | – | – | – | – | – | 96% | 88.3% | 101% | 95.5% | 91.9% | – | – | – | – | – | – |
| CO[C@H]1/C=C\C=C(/C)C(=O)NC2=CC(=O)C(NCCN(C)C)=C(C[C@@H](C)C[C@H](OC)[C@H](O)[C@@H](C)/C=C(\C)[C@@H]1OC(N)=O)C2=O [Alvespimycin] (1000 nM) | – | – | – | – | – | – | – | – | 33.1% | 44.9% | 34.2% | 21.6% | 36% | 6.39% | -0.26% | 18.6% | 4.23% | 29.6% | 3.62% |
| CCC1(c2ccc(N)cc2)CCC(=O)NC1=O (configuration not stated) [Aminoglutethimide] | 0 | 0 | 0 | 0 | 0 | 0 | 0 | 0 | – | – | – | – | – | – | – | – | – | – | – |
| CCC1(c2ccc(N)cc2)CCC(=O)NC1=O (configuration not stated) [Aminoglutethimide] (10000 nM) | – | – | – | – | – | – | – | – | 97.4% | 102% | 97.3% | 94.5% | 97.2% | 85.2% | 97.9% | 106% | 112% | 120% | 81.6% |
| Cn1c(CCCC(=O)O)nc2cc(N(CCCl)CCCl)ccc21 [Bendamustine] | 0 | 0 | 0 | 0 | 0 | 0 | 0 | 0 | – | – | – | – | – | – | – | – | – | – | – |
| Cn1c(CCCC(=O)O)nc2cc(N(CCCl)CCCl)ccc21 [Bendamustine] (10000 nM) | – | – | – | – | – | – | – | – | 111% | 105% | 116% | 108% | 105% | 99% | 78.6% | 92.9% | 92.4% | 113% | 121% |
| C=C(c1ccc(C(=O)O)cc1)c1cc2c(cc1C)C(C)(C)CCC2(C)C [Bexarotene] | 0 | 9 | 0 | 0 | 1.51 | 0 | 0 | 0 | – | – | – | – | – | – | – | – | – | – | – |
| C=C(c1ccc(C(=O)O)cc1)c1cc2c(cc1C)C(C)(C)CCC2(C)C [Bexarotene] (10000 nM) | – | – | – | – | – | – | – | – | 101% | 95.9% | 110% | 96.6% | 72.1% | 90.2% | 116% | 95.1% | 79.8% | 103% | 86.7% |
| COc1cc2nccc(Oc3ccc(NC(=O)C4(C(=O)Nc5ccc(F)cc5)CC4)cc3)c2cc1OC [Cabozantinib] | 0 | 0 | 0 | 0 | 1.14 | 0 | 0 | 0 | – | – | – | – | – | – | – | – | – | – | – |
| COc1cc2nccc(Oc3ccc(NC(=O)C4(C(=O)Nc5ccc(F)cc5)CC4)cc3)c2cc1OC [Cabozantinib] (1000 nM) | – | – | – | – | – | – | – | – | 95.3% | 101% | 87.2% | 95.4% | 107% | 86.5% | 108% | 45.1% | 78.7% | 88.5% | 37.1% |
| N.N.[Cl][Pt][Cl] [Cisplatin] | 0 | 0 | 0 | 0 | 0 | 0 | 0 | 0 | – | – | – | – | – | – | – | – | – | – | – |
| N.N.[Cl][Pt][Cl] [Cisplatin] (1000 nM) | – | – | – | – | – | – | – | – | 103% | 100% | 105% | 106% | 92.3% | – | – | – | – | – | – |
| C[C@@H](Oc1cc(-c2cnn(C3CCNCC3)c2)cnc1N)c1c(Cl)ccc(F)c1Cl [Crizotinib] (1000 nM) | – | – | – | – | – | – | – | – | 102% | 102% | 88.1% | 101% | 104% | – | – | – | – | – | – |
| CN(C)/N=N/c1[nH]cnc1C(N)=O [Dacarbazine] | 0 | 0 | 0 | 0 | 0 | 0 | 0 | 0 | – | – | – | – | – | – | – | – | – | – | – |
| CN(C)/N=N/c1[nH]cnc1C(N)=O [Dacarbazine] (10000 nM) | – | – | – | – | – | – | – | – | 109% | 108% | 99.8% | 96.5% | 111% | 91.2% | 103% | 87.5% | 96.2% | 104% | 105% |
